Laboratory results taken from article PMC5111108, “An insecticide resistance-breaking mosquitocide targeting inward rectifier potassium channels in vectors of Zika virus and malaria” (Scientific Reports, 2016).

Experiments:
honey bee, A. mellifera = assay: Acute topical toxicity to adult honey bees; type: in vivo, Apis mellifera; settings: bifenthrin positive control, 0.3 μg per bee (0.1 μg/bee) topical, 48 h
Description: Frames of late-stage honey bee (A. mellifera) pupae were taken from four colonies at The Ohio State University Honey Bee Lab in Wooster, OH and maintained in a dark humid incubator at 34 °C (Darwin Chambers Co., St. Louis, MO, model H024) until adult bees emerged. New adults were brushed from frames daily and placed in wooden screen cages (21 × 14 × 12 cm) provisioned with 1:1 (w/w) sucrose in water.
Acute toxicity experiments in adult bees were performed as follows. Twenty-four hours after emergence, adult honey bees in cages were anaesthetized with carbon dioxide, divided into groups of approximately 20 bees and placed in plastic-coated paper cups (177 cm^3; UNIQ Paper Yogurt Cup, Frozen Dessert Supplies, Gilbert, AZ) covered with cotton cheesecloth. […] As a positive control, some bees were treated with 3 μl of bifenthrin (0.1 μg/μl); negative controls consisted of bees treated with 3 μl of solvent. Applications were made using a 20 μl micropipette (Fisherbrand Finnpipette F2, Fisher Scientific, Pittsburgh, PA) with disposable plastic tips. After treatment, bees were returned to the paper cups and provided with sugar syrup in punctured 1.5 ml microcentrifuge tubes. […] Bees showing no movement on inspection at 48 h after treatment were scored as dead.

AnKir1 = target: T1, AnKir1 (Anopheles gambiae, UniProt A0A075M2J8); assay: Tl+ flux assay in T-REx-HEK293 cells expressing AnKir1; type: cell-based; settings: Tl+ flux; for IC50: Tables S2/S3 and supplemental text, read-out: AnKir1 IC50
T1 sequence (A0A075M2J8 1-555): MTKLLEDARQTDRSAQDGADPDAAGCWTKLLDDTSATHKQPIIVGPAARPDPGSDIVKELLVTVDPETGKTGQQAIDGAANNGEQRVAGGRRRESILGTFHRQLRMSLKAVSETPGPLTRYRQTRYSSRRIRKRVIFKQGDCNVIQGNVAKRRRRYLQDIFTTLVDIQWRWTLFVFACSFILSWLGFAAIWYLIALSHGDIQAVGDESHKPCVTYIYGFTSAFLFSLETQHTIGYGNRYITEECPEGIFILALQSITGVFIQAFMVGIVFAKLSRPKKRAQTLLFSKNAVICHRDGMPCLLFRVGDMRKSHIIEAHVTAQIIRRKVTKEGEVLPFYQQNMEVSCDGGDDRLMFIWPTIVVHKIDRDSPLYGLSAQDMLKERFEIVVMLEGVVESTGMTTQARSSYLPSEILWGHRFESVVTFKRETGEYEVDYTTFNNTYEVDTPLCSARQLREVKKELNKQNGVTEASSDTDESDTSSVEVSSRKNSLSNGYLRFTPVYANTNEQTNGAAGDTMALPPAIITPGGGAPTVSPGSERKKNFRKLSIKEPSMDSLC
Description: Tl^+ flux assays were performed essentially as described previously. Briefly, stably transfected T-Rex-HEK-293 cells expressing AnKir1 channels were cultured overnight in 384-well plates (20,000 cells/20 μL/well black-walled, clear-bottomed BD PureCoat amine-coated plates (BD, Bedford, MA) with a plating media containing DMEM, 10% dialyzed FBS and 1 μg/mL tetracycline. Approximately twenty-four hours after cell plating, the cell culture medium was replaced with a dye-loading solution containing assay buffer (Hanks Balanced Salt Solution with 20 mM HEPES, pH 7.3), 0.01% (w/v) Pluronic F-127 (Life Technologies, Carlsbad, CA), and 1.2 μM of the thallium-sensitive dye Thallos-AM (TEFlabs, Austin, TX). Following 1 hr incubation at room temperature, the dye-loading solution was washed from the plates and replaced with 20 μL/well of assay buffer.
Tl+ flux assay development
Tl+ flux assays were performed essentiall y as described previousl y (1). Briefl y, stabl y transfect ed T-Rex -HEK- 293- AnKir1 cells were cultured overnight in 384-well plates in media containing DMEM, 10% dial yz ed FBS and 1μg/ m L tetrac ycline to induce channel expression
(Fig. S1A). The next day, the cell culture medium was replaced with a dye-loading solution containing assay buffer (Hanks Balanced Salt Solution with 20 mM HEPES, pH 7.3), 0.01% (w/v) Pluronic F-127 (Li fe Technologies, Carlsbad, CA), and 1.2 μM of the thallium-sensitive dye Thallos-AM (TEFl abs, Austin, TX). Following 1 hr incubation at room temperature, the d ye-loading solution was washed from the plates and replaced with 20 μ L/well of assa y buffer. The plates were transferred t o a Ham amatsu Functional Drug Screening System 6000 (FDSS6000; Hamamatsu, Tokyo, J apan) where 20 μ L/well of test compounds in assay buffer (as prepared below) were added and allowed to incubate with the cells for 20 min. After the incubation period, a baseline recordi ng was collected at 1 Hz for 10 s (excitation 470 ± 20 nm, emission 540 ± 30 nm) followed by a t hallium stimulus buffer addition (10 μL/well) and data collection for an additional 4 min. The Tl + stimulus buffer contains in (mM) 125 NaHCO3, 1.8 CaSO4, 1 MgSO4, 5 glucose, 12 Tl2SO4, 10 HEPES, pH 7.4. For Tl + flux assays on Kir2.x, Kir4.1 and Kir6.2/SUR1 ex pressing cells, the Tl+ stimulus buffer contained 1.8 mM Tl 2SO4. To ensure the small-molecule vehicle DMSO had no direct effect on An Ki r1-dependent Tl+ flux, the assa y’s tolerance to different doses of DMSO was evaluated (Fig. S1B). The robustness and reproducibility of the assay was determined by comparing Tl+ flux through tetracycline-induced and tetracycline-uninduced cells (Fig. S1C). The Z’ value was calculated as described previously (1 ), using the […]
Z’ = 1- (3SD p + 3SD n)/ |meanp + meann | where SD is standard deviation, p and n are control and uninduced flux values respectivel y.
To compare the effect of DMSO on An Kir1-mediated Tl+ flux, a one-way ANOVA was performed with a Tuke y’s multiple comparison test. Prism software (GraphPad Software) was used to generate CRC from Tl+ fl ux ..Half-inhibition concentration (IC50) values were calculated from fits using a four parameter logistic equation.
High-throughput screeni ng
The test compounds were transferred to daughter pol yprop ylene 384-well plates (G reiner Bio-One, Monroe, NC) using an Echo555 liquid handler (Labcyte, Sunnyvale, CA), and then diluted into assay buffer to generat e a 2X stock in 0.6% DMSO (0.3% final). For Tl+ flux assays on Kir6.2/SUR1 expressing cells, test compounds were diluted in assay buffer containing diazoxide (250 μM final) to induce channel activation. Concentration- response curves (CRCs) were gener ated b y screening compounds at 3-fold dilution series (1 nM - 30 μM).
Tl+ flux data were anal yzed as previousl y d escri bed (2, 3) using a combination of Excel (Microsoft Corp, Redmond, WA) with XLfit add-in (IDBS, Guildford, Surre y, UK), Ori ginPro […]

An. gambiae Akron strain = settings: topical, (95% confidence limits); cited from earlier work
An. gambiae G3 strain = tested on: An. gambiae G3 strain; design: method as in PMID 26047119; settings: topical, (95% confidence limits); cited from earlier work
mosquitoes = tested on: mosquitoes; design: method as in PMID 24959745; settings: cited from earlier work
mosquito Kir1 channels = tested on: mosquito Kir1 channels; design: method as in PMID 24959745; settings: read-out: IC50 against mosquito Kir1 channels in vitro; cited from earlier work

In the case of `Cc1c(COC(=O)[C@@H]2[C@H](/C=C(\Cl)C(F)(F)F)C2(C)C)cccc1-c1ccccc1` (racemic) [bifenthrin, reference compound], the “honey bees dead (mortality)” value (honey bee, A. mellifera) is reported as 100%.
`O=C(CN1CCCc2ccccc21)N1CCCc2ccccc21` [Compound 6] gave an IC50 (AnKir1) of 8 µM.
With `O=C(Cn1nc(C(F)(F)F)c2c1CCCC2)N1CCc2ccccc2C1` [Compound 8] the “loss of potency vs VU041 (AnKir1)” value (AnKir1) was ~ 7 fold and the IC50 (AnKir1) was 15 µM.
`O=C(Cn1nc(C(F)(F)F)c2c1CCCC2)N1CCOc2ccccc21` [Compound 14] gave an IC50 (AnKir1) of 4.6 µM.
For `CC1(C)C(C=C(Cl)Cl)C1C(=O)OCc1cccc(Oc2ccccc2)c1` (stereo not drawn) [Permethrin], the “ED50, Akron Strain” value (An. gambiae Akron strain) is listed as 1.0e-3 (0.8e-4–1.3e-3) μg/mg and the “ED50, G3 Strain” value (An. gambiae G3 strain) is listed as 0.03e-5 (0.02e-5–0.05e-5) μg/mg.
For `CCC(=O)N1c2ccc(S(=O)(=O)Nc3cccc(OC)c3)cc2CC1C` (stereo not drawn) [VU625], the “topical toxicity to mosquitoes” value (mosquitoes) is given as “not topically toxic to mosquitoes” and the IC50 (mosquito Kir1 channels) is given as about 0.1 µM.
